In patent publication US9796719B2, “Compounds and pharmaceutical compositions thereof for the treatment of inflammatory disorders” (GALAPAGOS NV, priority 2013, dated 2017):

What was measured:
hENPP2 [1] = target: T1, hENPP2 (UniProtKB/SwissProt Sequence ref Q13822) (Homo sapiens (Human), UniProt Q13822); experiment: FS3 hENPP2 assay (fluorogenic substrate FS-3); type: biochemical; details: hENPP2, FS-3 as substrate
Procedure: Compound IC50 values are determined in a fluorescent hENPP2 (UniProtKB/SwissProt Sequence ref Q13822) biochemical assay using the fluorogenic autotaxin substrate FS-3 as substrate. FS-3 is a doubly labeled analog of LPC wherein the fluorophore is quenched through intramolecular energy transfer. Without hENPP2, the emission of the probe is quenched. If the substrate is hydrolyzed by hENPP2, the emission of the probe is not quenched anymore resulting in a fluorescence increase. Inhibition of hENPP2 by compounds will result in a decrease of the signal.
10 μL of a dilution series of compound, starting from 20 μM highest concentration, ⅕ dilution, is added to the wells. hENPP2 is used at a final concentration of 0.4 μg/mL or 0.64 μg/mL (it will be appreciated by the skilled person that the potency read out is independent of the enzyme concentration). The enzyme is diluted in 50 mM Tris-HCl pH 8.0, 250 mM NaCl, 5 mM KCl, 1 mM MgCl2, 1 mM CaCl2, 0.1% fatty acid free BSA in a total volume of 20 μL. Enzyme mixture is added to compounds and the resulting mixture is incubated for 30 min at room temperature under shaking. The reaction is started by the addition of 20 μL of 0.75 μM FS-3 diluted in the same buffer as described above and the mixture is incubated at 30° C. for 30 min. Fluorescence is read on the Envision (Excitation 485 nm, emission 520 nm).

hENPP2 [2] = target: T1, hENPP2; experiment: LPC hENPP2 assay (choline release, LPC as substrate); type: biochemical
Outline: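 Detection is coupled: choline oxidase produces peroxide, which HRP uses to form quinoneimine dye from TOOS and 4-aminoantipyrine, read at 555 nm. The reaction is stopped with 20 mM EGTA in the developer mix, then incubated 30 min at room temperature; inhibition lowers signal.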

Row | Compound | IC50 (hENPP2 [1]) | IC50 (hENPP2 [2])
1 | CCc1nc2cnc(N3CCN(CC(=O)N4CCCC4)CC3)cn2c1N(C)c1nc(-c2ccc(F)cc2)c(C#N)s1 [Cpd 8, 2-((2-ethyl-6-(4-(2-oxo-2-(pyrrolidin-1-yl)ethyl)piperazin-1-yl)imidazo[1,2-a]pyrazin-3-yl)(methyl)amino)-4-(4-fluorophenyl) thiazole-5-carbonitrile] | 0.01 to 25 nM | 100 to 500 nM
2 | CCc1nc2cnc(N3CCN(CC(=O)NC)CC3)cn2c1N(C)c1nc(-c2ccc(F)cc2)c(C#N)s1 [Cpd 9, 2-(4-(3-((5-cyano-4-(4-fluorophenyl)thiazol-2-yl)(methyl)amino)-2-ethylimidazo[1,2-a]pyrazin-6-yl)piperazin-1-yl)-N-methylacetamide] | 0.01 to 25 nM | 500 to 1000 nM
3 | CCc1nc2cnc(N3CCN(CC(=O)N4CC(F)C4)CC3)cn2c1N(C)c1nc(-c2ccc(F)cc2)c(C#N)s1 [Cpd 11, 2-((2-ethyl-6-(4-(2-(3-fluoroazetidin-1-yl)-2-oxoethyl)piperazin-1-yl)imidazo[1,2-a]pyrazin-3-yl)(methyl)amino)-4-(4-fluorophenyl) thiazole-5-carbonitrile] | 0.01 to 25 nM | 100 to 500 nM
4 | CCc1nc2cnc(C3CCNCC3)cn2c1N(C)c1nc(-c2ccc(F)cc2)c(C#N)s1 [Cpd 22, 2-((2-ethyl-6-(piperidin-4-yl)imidazo[1,2-a]pyrazin-3-yl)(methyl)amino)-4-(4-fluorophenyl) thiazole-5-carbonitrile] | 25 to 50 nM | > 1000 nM
5 | CCc1nc2ccc(N3CCN(CC(=O)N4CC(O)C4)CC3)nn2c1N(C)c1nc(-c2ccc(F)cc2)cs1 [Cpd 26] | 0.01 to 25 nM | 100 to 500 nM
6 | CCc1nc2ccc(N3CCN(CC(=O)N4CC(O)C4)CC3)nn2c1N(C)c1nc(-c2ccc(F)cc2)c(C#N)s1 [Cpd 27, 2-((2-ethyl-6-(4-(2-(3-hydroxyazetidin-1-yl)-2-oxoethyl)piperazin-1-yl)imidazo[1,2-b]pyridazin-3-yl)(methyl)amino)-4-(4-fluorophenyl) thiazole-5-carbonitrile] | 0.01 to 25 nM | 0.01 to 100 nM
7 | CCc1nc2ccc(N3CCN(CC(=O)N4CCCC4CO)CC3)nn2c1N(C)c1nc(-c2ccc(F)cc2)cs1 (stereo not shown) [Cpd 29] | 0.01 to 25 nM | 100 to 500 nM
8 | CCc1nc2ccc(N3CCN(CC(=O)N(C)C)CC3)nn2c1N(C)c1nc(-c2ccc(F)cc2)c(CO)s1 [Cpd 43, 2-(4-(2-ethyl-3-((4-(4-fluorophenyl)-5-(hydroxymethyl)thiazol-2-yl)(methyl)amino)imidazo[1,2-b]pyridazin-6-yl)piperazin-1-yl)-N,N-dimethylacetamide] | 0.01 to 25 nM | 100 to 500 nM
9 | CCc1nc2ccc(N3CCN(CC(=O)N(C)C)CC3)nn2c1N(C)c1nc(-c2ccc(F)cc2)c(C(=O)C(F)(F)F)s1 [Cpd 45, 2-(4-(2-ethyl-3-((4-(4-fluorophenyl)-5-(2,2,2-trifluoroacetoyl)thiazol-2-yl)(methyl)amino)imidazo[1,2-b]pyridazin-6-yl)piperazin-1-yl)-N,N-dimethylacetamide] | 0.01 to 25 nM | 0.01 to 100 nM
10 | CCc1nc2ccc(N3CCN(CCN4CCCC4=O)CC3)nn2c1N(C)c1nc(-c2ccc(F)cc2)cs1 [Cpd 46, 1-(2-(4-(2-ethyl-3-((4-(4-fluorophenyl)thiazol-2-yl)(methyl)amino)imidazo[1,2-b]pyridazin-6-yl)piperazin-1-yl)ethyl)pyrrolidin-2-one] | 0.01 to 25 nM | 100 to 500 nM
11 | CCc1nc2ccc(N3CCN(C(=O)C4CCCO4)CC3)nn2c1N(C)c1nc(-c2ccc(F)cc2)cs1 (stereo not drawn) [Cpd 47, (4-(2-ethyl-3-((4-(4-fluorophenyl)thiazol-2-yl)(methyl)amino)imidazo[1,2-b]pyridazin-6-yl)piperazin-l-yl)(tetrahydrofuran-2-yl)methanone] | 0.01 to 25 nM | > 1000 nM
12 | CCc1nc2ccc(N3CCN(CC4CCCO4)CC3)nn2c1N(C)c1nc(-c2ccc(F)cc2)cs1 (stereo not shown) [Cpd 48, N-(2-ethyl-6-(4-((tetrahydrofuran-2-yl)methyl)piperazin-1-yl)imidazo[1,2-b]pyridazin-3-yl)-4-(4-fluorophenyl)-N-methylthiazol-2-amine] | 0.01 to 25 nM | 100 to 500 nM
13 | CCc1nc2ccc(N3CCN(CCCO)CC3)nn2c1N(C)c1nc(-c2ccc(F)cc2)cs1 [Cpd 49, 3-(4-(2-ethyl-3-((4-(4-fluorophenyl)thiazol-2-yl)(methyl)amino)imidazo[1,2-b]pyridazin-6-yl)piperazin-1-yl)propan-1-ol] | 0.01 to 25 nM | 500 to 1000 nM
14 | CCc1nc2ccc(N3CCN(CCC#N)CC3)nn2c1N(C)c1nc(-c2ccc(F)cc2)cs1 [Cpd 51] | 0.01 to 25 nM | > 1000 nM
15 | CCc1nc2ccc(N3CCN(CCOC)CC3)nn2c1N(C)c1nc(-c2ccc(F)cc2)cs1 [Cpd 53, N-(2-ethyl-6-(4-(2-methoxyethyl)piperazin-1-yl)imidazo[1,2-b]pyridazin-3-yl)-4-(4-fluorophenyl)-N-methylthiazol-2-amine] | 0.01 to 25 nM | > 1000 nM
16 | CCc1nc2ccc(N3CCN(CC(=O)NC(C)C)CC3)nn2c1N(C)c1nc(-c2ccc(F)cc2)cs1 [Cpd 54, 2-(4-(2-ethyl-3-((4-(4-fluorophenyl)thiazol-2-yl)(methyl)amino)imidazo[1,2-b]pyridazin-6-yl)piperazin-1-yl)-N-isopropylacetamide] | 0.01 to 25 nM | > 1000 nM
17 | CCc1nc2ccc(N3CCN(CC(=O)N4CCCC4)CC3)nn2c1N(C)c1nc(-c2ccc(F)cc2)cs1 [Cpd 55, 2-(4-(2-ethyl-3-((4-(4-fluorophenyl)thiazol-2-yl)(methyl)amino)imidazo[1,2-b]pyridazin-6-yl)piperazin-1-yl)-1-(pyrrolidin-1-yl)ethanone] | 0.01 to 25 nM | 100 to 500 nM
18 | CCc1nc2ccc(N3CCN(CCNC(C)=O)CC3)nn2c1N(C)c1nc(-c2ccc(F)cc2)cs1 [Cpd 57, N-(2-(4-(2-ethyl-3-((4-(4-fluorophenyl)thiazol-2-yl)(methyl)amino)imidazo[1,2-b]pyridazin-6-yl)piperazin-1-yl)ethyl)acetamide] | 0.01 to 25 nM | 100 to 500 nM
19 | CCc1nc2ccc(N3CCN[C@H](CO)C3)nn2c1N(C)c1nc(-c2ccc(F)cc2)cs1 [Cpd 60, (S)-(4-(2-ethyl-3-((4-(4-fluorophenyl)thiazol-2-yl)(methyl)amino)imidazo[1,2-b]pyridazin-6-yl)piperazin-2-yl)methanol] | 0.01 to 25 nM | > 1000 nM
20 | CCc1nc2ccc(N3CCN(CC(=O)N4CCOCC4)[C@H](CO)C3)nn2c1N(C)c1nc(-c2ccc(F)cc2)cs1 [Cpd 65, (S)-2-(4-(2-ethyl-3-((4-(4-fluorophenyl)thiazol-2-yl)(methyl)amino)imidazo[1,2-b]pyridazin-6-yl)-2-(hydroxymethyl)piperazin-1-yl)-1-morpholinoethanone] | 0.01 to 25 nM | 100 to 500 nM
21 | CCc1nc2ccc(N3CCN(S(C)(=O)=O)[C@H](CO)C3)nn2c1N(C)c1nc(-c2ccc(F)cc2)cs1 [Cpd 67, (S)-(4-(2-ethyl-3-((4-(4-fluorophenyl)thiazol-2-yl)(methyl)amino)imidazo[1,2-b]pyridazin-6-yl)-1-(methylsulfonyl)piperazin-2-yl)methanol] | 0.01 to 25 nM | 100 to 500 nM
22 | CCc1nc2ccc(N3CCN(S(=O)(=O)CC)CC3)nn2c1N(C)c1nc(-c2ccc(F)cc2)cs1 [Cpd 71, N-(2-ethyl-6-(4-(ethylsulfonyl)piperazin-1-yl)imidazo[1,2-b]pyridazin-3-yl)-4-(4-fluorophenyl)-N-methylthiazol-2-amine] | 0.01 to 25 nM | > 1000 nM
23 | CCc1nc2ccc(N3CCN(S(C)(=O)=O)C(CCO)C3)nn2c1N(C)c1nc(-c2ccc(F)cc2)cs1 (stereo not shown) [Cpd 72, 2-(4-(2-ethyl-3-((4-(4-fluorophenyl)thiazol-2-yl)(methyl)amino)imidazo[1,2-b]pyridazin-6-yl)-1-(methylsulfonyl)piperazin-2-yl) ethanol] | 0.01 to 25 nM | 500 to 1000 nM
24 | CCc1nc2ccc(N3CCOCC3)nn2c1N(C)c1nc(-c2ccc(F)cc2)cs1 [Cpd 78, N-(2-ethyl-6-morpholinoimidazo [1,2-b]pyridazin-3-yl)-4-(4-fluorophenyl)-N-methylthiazol-2-amine] | 0.01 to 25 nM | > 1000 nM
25 | CCc1nc2ccc(N3CCC(NC(=O)OC(C)(C)C)CC3)nn2c1N(C)c1nc(-c2ccc(F)cc2)cs1 [Cpd 81, tert-butyl 1-(2-ethyl-3-((4-(4-fluorophenyl)thiazol-2-yl)(methyl)amino)imidazo[1,2-b]pyridazin-6-yl)piperidin-4-ylcarbamate] | 0.01 to 25 nM | > 1000 nM
26 | CCc1nc2ccc(N3CCC(N)CC3)nn2c1N(C)c1nc(-c2ccc(F)cc2)cs1 [Cpd 82, N-(6-(4-aminopiperidin-1-yl)-2-ethylimidazo[1,2-b]pyridazin-3-yl)-4-(4-fluorophenyl)-N-methylthiazol-2-amine] | 0.01 to 25 nM | > 1000 nM
